Measurements from patent publication US8592383B2, “Cycloalkyl-fused tetrahydroquinolines as CRTH2 receptor modulators” (Merck Sharp & Dohme Corp., priority 2011, dated 2013).
Read-outs that look alike come from different tables or passages of the source.

Tests used:
hCRTH2 [1] = biological target: T1, hCRTH2 (Homo sapiens, UniProt Q9Y5Y4); test: biochemical; conditions: Ki, Radioligand Binding Assay A; 3.0 nM [3H]PGD2, HEK-hCRTH2 membranes
T1 sequence (Q9Y5Y4 1-395): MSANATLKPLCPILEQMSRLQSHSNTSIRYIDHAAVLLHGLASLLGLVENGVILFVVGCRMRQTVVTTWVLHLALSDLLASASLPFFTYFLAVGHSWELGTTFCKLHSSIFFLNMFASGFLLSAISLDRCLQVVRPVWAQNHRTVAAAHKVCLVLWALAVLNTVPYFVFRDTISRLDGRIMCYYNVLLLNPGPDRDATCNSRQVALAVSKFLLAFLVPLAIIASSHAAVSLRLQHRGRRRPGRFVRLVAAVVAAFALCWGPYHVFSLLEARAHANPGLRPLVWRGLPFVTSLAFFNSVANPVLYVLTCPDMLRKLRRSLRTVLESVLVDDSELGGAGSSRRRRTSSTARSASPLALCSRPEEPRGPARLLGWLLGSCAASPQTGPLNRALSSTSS

hCRTH2 [2] = biological target: T1, hCRTH2; parameters: expressed in transfected cells; host or cells: HEK (human embryonic kidney) cells expressing hCRTH2; conditions: Radioligand Binding Assay B; Table B, rated A-D
Description: The filters were then washed with 4 mL of the same buffer and residual radioligand bound to the filter was determined by liquid scintillation counting following equilibration in 25 μl Ultima Gold F™ (Unifilter) (Packard).

Row | SMILES | Ki (hCRTH2 [1]) [nM] | Ki (hCRTH2 [2]) [nM]
1 | O=C(O)c1ccccc1C(=O)N(C1CC1)[C@@H]1c2ccccc2N(C(=O)c2ccc(OC(F)(F)F)cc2)[C@@H]2CCC[C@@H]21 (racemic) [17Ci, 2-[[cyclopropyl[cis,cis-2,3,3a,4,9,9a-hexahydro-4-[4-(trifluoromethoxy)benzoyl]-1H-cyclopenta[b]quinolin-9-yl]amino]carbonyl]benzoic acid] | 838 | –
2 | CC(C)OC(=O)N1c2ccccc2C(N(C(=O)CCC(=O)O)C2CC2)C2CCCC21 (racemic) [compound 21, 4-(Cyclopropyl{cis,cis-4-[(1-methylethoxy)carbonyl]-2,3,3a,4,9,9a-hexahydro-1H-cyclopenta[b]quinolin-9-yl}amino)-4-oxobutanoic acid] | – | 20.1 to 200
3 | O=C(O)CCC(=O)N(C1CC1)[C@@H]1c2ccccc2N(C(=O)N2CCc3ccccc32)[C@@H]2CCC[C@@H]21 (racemic) [compound 23, 4-{Cyclopropyl[cis,cis-4-(2,3-dihydro-1H-indol-1-ylcarbonyl)-2,3,3a,4,9,9a-hexahydro-1H-cyclopenta[b]quinolin-9-yl]amino}-4-oxobutanoic acid] | – | 20.1 to 200
4 | O=C(O)CCC(=O)N(C1CC1)[C@@H]1c2ccccc2N(S(=O)(=O)c2ccccc2)[C@@H]2CCC[C@H]12 (racemic) [compound 24, 4-[Cyclopropyl[cis,cis-2,3,3a,4,9,9a-hexahydro-4-(phenylsulfonyl)-1H-cyclopenta[b]quinolin-9-yl]amino]-4-oxobutanoic acid] | – | 20.1 to 200
5 | O=C(O)CCC(=O)N(C1CC1)[C@@H]1c2ccccc2N(C(=O)OCc2ccccc2)[C@@H]2CC[C@@H]21 (racemic) [compound 25, 4-[{cis,cis-3-[(Benzyloxy)carbonyl]-1,2,2a,3,8,8a-hexahydrocyclobuta[b]quinolin-8-yl}(cyclopropyl)amino]-4-oxobutanoic acid] | – | 20.1 to 200
6 | COC(=O)CCC(=O)N(C1CC1)C1c2ccccc2N(C(=O)c2ccc(OC(F)(F)F)cc2)C2CCC21 (racemic) [compound 26, Methyl 4-{cyclopropyl[cis,cis-3-{[4-(trifluoromethoxy)phenyl]carbonyl}-1,2,2a,3,8,8a-hexahydrocyclobuta[b]quinolin-8-yl]amino}-4-oxobutanoate] | – | 20.1 to 200
7 | O=C(O)CCC(=O)N(C1CC1)[C@@H]1c2ccccc2N(C(=O)OCc2ccccc2)[C@@H]2CCCC[C@@H]21 (racemic) [compound 28, 4-[{cis,cis-10-[(Benzyloxy)carbonyl]-1,2,3,4,4a,9,9a,10-octahydroacridin-9-yl}(cyclopropyl)amino]-4-oxobutanoic acid] | – | 20.1 to 200
8 | O=C(c1ccccc1)N1c2ccccc2[C@@H](N(C(=O)OCCO)C2CC2)[C@H]2CCC[C@H]21 (racemic) [compound 29, 2-Hydroxyethyl cyclopropyl[cis,cis-4-(phenylcarbonyl)-2,3,3a,4,9,9a-hexahydro-1H-cyclopenta[b]quinolin-9-yl]carbamate] | – | 201 to 7500
9 | O=C(O)COC(=O)N(C1CC1)[C@@H]1c2ccccc2N(C(=O)c2ccccc2)[C@@H]2CCC[C@@H]21 (racemic) [compound 30, ({Cyclopropyl[cis,cis-4-(phenylcarbonyl)-2,3,3a,4,9,9a-hexahydro-1H-cyclopenta[b]quinolin-9-yl]carbamoyl}oxy)acetic acid] | – | 5.1 to 20
10 | O=C(O)COC(=O)N(C1CC1)[C@@H]1c2ccccc2N(C(=O)c2ccc(OC(F)(F)F)cc2)[C@@H]2CCC[C@@H]21 (racemic) [compound 31, ({Cyclopropyl[cis,cis-4-{[4-(trifluoromethoxy)phenyl]carbonyl}-2,3,3a,4,9,9a-hexahydro-1H-cyclopenta[b]quinolin-9-yl]carbamoyl}oxy)acetic acid] | – | 5.1 to 20
11 | O=C(O)CCC(=O)N(C1CC1)[C@@H]1c2ccccc2N(c2nnc(Cc3ccccc3)o2)[C@@H]2CCC[C@@H]21 (racemic) [compound 36, 4-{[cis-4-(5-Benzyl-1,3,4-oxadiazol-2-yl)-2,3,3a,4,9,9a-hexahydro-1H-cyclopenta[b]quinolin-9-yl](cyclopropyl)amino}-4-oxobutanoic acid] | – | 20.1 to 200
12 | O=C(O)COC(=O)N(C1CC1)C1c2ccccc2N(c2nnc(-c3ccccc3)o2)C2CCCC21 (racemic) [compound 37, ({Cyclopropyl[cis,cis-4-(5-phenyl-1,3,4-oxadiazol-2-yl)-2,3,3a,4,9,9a-hexahydro-1H-cyclopenta[b]quinolin-9-yl]carbamoyl}oxy)acetic acid] | – | 5.1 to 20
13 | CCN(c1nc(C(=O)O)cs1)[C@@H]1c2ccccc2N(C(=O)OCc2ccccc2)[C@@H]2CCC[C@H]12 (racemic) [compound 39, 2-[{cis,cis-4-[(Benzyloxy)carbonyl]-2,3,3a,4,9,9a-hexahydro-1H-cyclopenta[b]quinolin-9-yl}(ethyl)amino]-1,3-thiazole-4-carboxylic acid] | – | 20.1 to 200
14 | O=C(O)CCCN(C1CC1)[C@@H]1c2ccccc2N(C(=O)c2ccc(OC(F)(F)F)cc2)[C@@H]2CCC[C@@H]21 (racemic) [compound 44, 4-[Cyclopropyl[cis,cis-2,3,3a,4,9,9a-hexahydro-4-[4-(trifluoromethoxy)benzoyl]-1H-cyclopenta[b]quinolin-9-yl]amino]butanoic acid] | 2.54 | –
15 | O=C(O)CCC(=O)N(C1CC1)C1c2ccc(Cl)cc2N(C(=O)OCc2ccccc2)C2CCCC21 (single isomer, unassigned) [9A, 4-(phenylmethyl) cis,cis-[(3-carboxy-1-oxopropyl)cyclopropylamino]-6-chloro-1,2,3,3a,9,9a-hexahydro-4H-cyclopenta[b]quinoline-4-carboxylate] | 4.7 | –

Results, then the compound that gave them:

Row | Ki (hCRTH2 [1]) [nM] | Ki (hCRTH2 [2]) [nM] | SMILES
16 | 36 | – | O=C(O)CCC(=O)N(C1CC1)C1c2ccccc2N(C(=O)c2ccco2)C2CCCC21 (racemic) [17BL, 4-(cyclopropyl(cis,cis-4-(furan-2-carbonyl)-2,3,3a,4,9,9a-hexahydro-1H-cyclopenta[b]quinolin-9-yl)amino)-4-oxobutanoic acid]
17 | 605 | – | CN(C(=O)CCC(=O)O)C1c2ccccc2N(C(=O)OCc2ccccc2)C2CCCC12 (racemic) [17U, 4-(phenylmethyl) cis,cis-9-[(3-carboxy-1-oxopropyl)methylamino]-1,2,3,3a,9,9a-hexahydro-4H-cyclopenta[b]quinoline-4-carboxylate]
18 | 28.5 | – | CCOc1cnc(-c2ccc(C(=O)N3c4ccccc4C(N(C(=O)CCC(=O)O)C4CC4)C4CCCC43)cc2)nc1 (racemic) [18P, 4-[cyclopropyl[cis,cis-4-[4-(5-ethoxy-2-pyrimidinyl)benzoyl]-2,3,3a,4,9,9a-hexahydro-1H-cyclopenta[b]quinolin-9-yl]amino]-4-oxobutanoic acid]
19 | 9.8 | – | O=C(O)CCC(=O)N(C1CC1)C1c2ccccc2N(C(=O)c2ccc(-c3cncs3)cc2)C2CCCC21 (racemic) [18o, 4-[cyclopropyl[cis,cis-2,3,3a,4,9,9a-hexahydro-4-[4-(5-thiazolyl)benzoyl]-1H-cyclopenta[b]quinolin-9-yl]amino]-4-oxobutanoic acid]
20 | 10.9 | – | O=C(O)CCC(=O)N(C1CCC1)C1c2ccc(Cl)cc2N(C(=O)c2ccc(F)c(F)c2)C2CCCC21 (single isomer, unassigned) [17Co, 4-[[cis,cis-6-chloro-4-(3,4-difluorobenzoyl)-2,3,3a,4,9,9a-hexahydro-1H-cyclopenta[b]quinolin-9-yl]cyclobutylamino]-4-oxobutanoic acid]
